Assays:
[1] = molecular target: T1, PIK3CA (Homo sapiens, UniProt P42336); test: In vitro ELISA target engagement assay for PIK3CA in Jurkat cellular lysate (competition with PIK3CA Biotin Probe); type: binding; conditions: 1 hour at rt, then 500 nM PIK3CA Biotin Probe, read-out: Elisa Target Engagement Assay (TE50)
T1 construct: endogenous in cells; host or cells: Jurkat cell lysate
Outline: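 Competition format in Jurkat lysate: compound (serial dilutions, top 200 μM) for 1 h at rt, then 500 nM final biotinylated PIK3CA probe for 1 h at rt. Sandwich ELISA with capture antibody and Neutravidin-HRP luminescence read-out measured probe-labelled PIK3CA, giving TE50.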

[2] = tested on: pAKT(S473) in FaDu cell line; test: In vitro Phospho-AKT(S473) HTRF analysis in FaDu cells; type: cell-based; conditions: Homo sapiens, 0.5 h; for IC50: FaDu cells, 30 minutes at 37° C.; for Emax: FaDu, read-out: FaDu pAKT Imax % control
Protocol: Example 5. In Vitro Phosgho-AKT(S473) Analysis
Functional activity of the compounds to inhibit pAKT were assessed in FaDu or H358 cell lines as indicated below.
• Complete Media • FBS, Corning catalog #35-010-CV • Anti-Anti, Gibco catalog #15240-062 • 96 well plate, Corning catalog #3610 • TrypLE, Gibco catalog #12604013 • Phospho-AKT(S473) HTRF kit, Cisbio catalog #64AKSPET
Cells were detached from the tissue culture flask with TrypLE. The cells were pelleted at 500×g for 5 min, TrypLe was removed and then resuspended in the necessary volume of media+1% FBS to give the appropriate cell density (17,500 cells/mL for FaDu; 20,000 cells/mL for H358). 100 μL of cell suspension/well was dispensed into the 96-well plate while keeping the outer wells of the plate free of cells and filled with PBS to prevent evaporation of interior wells. The plate was incubated at 37° C. and allowed to adhere overnight. The cells were treated with a dose response of compound and incubated at 37° C. for 30 minutes. The cells were then processed and pAKT(S473) levels were assessed following the specifications of the Cisbio HTRF kit.

T1 sequence (P42336 whole entry): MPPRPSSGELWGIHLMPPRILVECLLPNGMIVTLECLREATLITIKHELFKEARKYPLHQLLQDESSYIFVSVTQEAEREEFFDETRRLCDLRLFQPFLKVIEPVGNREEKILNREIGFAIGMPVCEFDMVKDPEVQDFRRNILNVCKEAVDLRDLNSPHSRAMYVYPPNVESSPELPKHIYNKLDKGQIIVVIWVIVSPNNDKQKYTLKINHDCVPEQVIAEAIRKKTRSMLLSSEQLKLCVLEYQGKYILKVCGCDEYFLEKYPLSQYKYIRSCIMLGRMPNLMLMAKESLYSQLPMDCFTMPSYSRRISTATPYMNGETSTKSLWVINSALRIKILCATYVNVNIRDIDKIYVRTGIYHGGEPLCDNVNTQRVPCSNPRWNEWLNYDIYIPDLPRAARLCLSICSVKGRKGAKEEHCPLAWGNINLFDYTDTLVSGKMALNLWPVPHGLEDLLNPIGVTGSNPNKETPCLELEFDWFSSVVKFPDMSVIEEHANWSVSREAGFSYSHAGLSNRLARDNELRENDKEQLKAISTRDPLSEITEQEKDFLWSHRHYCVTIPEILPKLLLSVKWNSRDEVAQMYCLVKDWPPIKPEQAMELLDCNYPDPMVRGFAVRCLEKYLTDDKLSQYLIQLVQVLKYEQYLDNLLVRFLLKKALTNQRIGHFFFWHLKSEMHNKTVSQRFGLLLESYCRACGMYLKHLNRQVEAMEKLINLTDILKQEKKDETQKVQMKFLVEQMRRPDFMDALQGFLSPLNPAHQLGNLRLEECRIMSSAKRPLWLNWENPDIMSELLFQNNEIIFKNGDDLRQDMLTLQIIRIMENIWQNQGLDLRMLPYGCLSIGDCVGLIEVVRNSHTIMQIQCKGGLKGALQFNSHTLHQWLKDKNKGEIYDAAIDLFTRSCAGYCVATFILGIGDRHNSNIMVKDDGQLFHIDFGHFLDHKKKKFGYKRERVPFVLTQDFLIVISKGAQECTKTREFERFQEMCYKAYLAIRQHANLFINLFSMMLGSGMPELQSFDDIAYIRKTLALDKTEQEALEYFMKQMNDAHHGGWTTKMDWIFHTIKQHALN
T1 sequence (P27986 whole entry partner): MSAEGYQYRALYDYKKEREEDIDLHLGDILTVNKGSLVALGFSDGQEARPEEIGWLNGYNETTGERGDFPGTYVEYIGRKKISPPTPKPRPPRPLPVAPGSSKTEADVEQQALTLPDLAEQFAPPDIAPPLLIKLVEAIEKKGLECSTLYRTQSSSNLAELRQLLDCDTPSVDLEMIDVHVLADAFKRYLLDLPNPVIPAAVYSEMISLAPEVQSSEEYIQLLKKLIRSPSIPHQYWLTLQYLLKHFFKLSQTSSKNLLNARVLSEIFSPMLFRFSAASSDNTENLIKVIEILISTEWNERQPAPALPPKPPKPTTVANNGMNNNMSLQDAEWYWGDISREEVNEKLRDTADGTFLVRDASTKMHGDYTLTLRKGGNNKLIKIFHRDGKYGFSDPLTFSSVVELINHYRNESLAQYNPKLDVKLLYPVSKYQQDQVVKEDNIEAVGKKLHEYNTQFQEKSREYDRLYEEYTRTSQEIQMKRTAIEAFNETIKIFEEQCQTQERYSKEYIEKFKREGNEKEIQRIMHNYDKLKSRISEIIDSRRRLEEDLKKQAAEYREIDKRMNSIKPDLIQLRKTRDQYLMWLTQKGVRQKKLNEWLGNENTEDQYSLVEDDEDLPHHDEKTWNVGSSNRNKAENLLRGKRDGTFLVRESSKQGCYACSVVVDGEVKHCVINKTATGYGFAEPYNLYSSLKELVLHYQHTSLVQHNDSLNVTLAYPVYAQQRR

Row | Compound | IC50 [1] [nM] | IC50 [2] [nM] | Emax [2] [%]
1 | C[C@H](/C=C\S(C)(=O)=O)NC(=O)[C@@]1(F)CCCN(C(=O)[C@H]2CN(CC(F)(F)F)C[C@H]2c2cccc(F)c2Cl)CC1 (single isomer, unassigned) [Compound 168, (R)-1-((3*R,4*R)-4-(2-chloro-3-fluorophenyl)-1-(2,2,2-trifluoroethyl)pyrrolidine-3-carbonyl)-4-fluoro-N-((R,Z)-4-(methylsulfonyl)but-3-en-2-yl)azepane-4-carboxamide] | 215 | 136 | 90.6
2 | C[C@H](/C=C/C(=O)N1CC(F)(F)C1)NC(=O)[C@@]1(F)CCCN(C(=O)c2ccc(Br)cc2-c2ccccc2Cl)CC1 [Compound 243, (R)-1-(5-bromo-2′-chloro-[1,1′-biphenyl]-2-carbonyl)-N-((R,E)-5-(3,3-difluoroazetidin-1-yl)-5-oxopent-3-en-2-yl)-4-fluoroazepane-4-carboxamide] | 670 | 761 | 68.7
3 | C[C@H](/C=C\S(C)(=O)=O)NC(=O)[C@@]1(F)CCCN(C(=O)[C@H]2CN(CC(C)(F)F)C[C@H]2c2ccccc2Cl)CC1 [Compound 180, (R)-1-((3R,4R)-4-(2-chlorophenyl)-1-(2,2-difluoropropyl)pyrrolidine-3-carbonyl)-4-fluoro-N-((R,Z)-4-(methylsulfonyl)but-3-en-2-yl)azepane-4-carboxamide] | 127 | 136 | 96.9
4 | O=C([C@H]1CN(CC(F)(F)F)C[C@H]1c1ccccc1Cl)N1CCC(F)(C(=O)N[C@@H]2C=CS(=O)(=O)C2)CC1 [Compound 164, 1-((3R,4R)-4-(2-chlorophenyl)-1-(2,2,2-trifluoroethyl)pyrrolidine-3-carbonyl)-N—((R)-1,1-dioxido-2,3-dihydrothiophen-3-yl)-4-fluoropiperidine-4-carboxamide] | 370 | 834 | 103
5 | Cc1cccc([C@@H]2CN(CC(F)(F)F)C[C@@H]2C(=O)N2CCC[C@](F)(C(=O)N[C@H](C)/C=C\S(C)(=O)=O)CC2)c1Cl (single isomer, unassigned) [Compound 172, (R)-1-((3*R,4*R)-4-(2-chloro-3-methylphenyl)-1-(2,2,2-trifluoroethyl)pyrrolidine-3-carbonyl)-4-fluoro-N-((R,Z)-4-(methylsulfonyl)but-3-en-2-yl)azepane-4-carboxamide] | 580 | 505 | 97.9
6 | C[C@H](/C=C/C(=O)N1CC(F)(F)C1)NC(=O)[C@]1(F)CCN(S(=O)(=O)c2ccc(Br)cc2-c2ccccc2Cl)[C@H](C)C1 [Compound 153, (2R,4S)-1-((5-bromo-2′-chloro-[1,1′-biphenyl]-2-yl)sulfonyl)-N-((R,E)-5-(3,3-difluoroazetidin-1-yl)-5-oxopent-3-en-2-yl)-4-fluoro-2-methylpiperidine-4-carboxamide] | 183 | 204 | 104
7 | CCOc1ccc(S(=O)(=O)N2CC[C@@](F)(C(=O)N[C@H](C)/C=C/C(=O)N3CC(F)(F)C3)C[C@H]2C)c(-c2ccccc2Cl)c1 [Compound 298, (2R,4S)-1-((2′-chloro-5-ethoxy-[1,1′-biphenyl]-2-yl)sulfonyl)-N-((R,E)-5-(3,3-difluoroazetidin-1-yl)-5-oxopent-3-en-2-yl)-4-fluoro-2-methylpiperidine-4-carboxamide] | 720 | 322 | 102
8 | COC[C@@H](/C=C\S(C)(=O)=O)NC(=O)C1(F)CCN(S(=O)(=O)c2ccc(OC)cc2-c2ccccc2Cl)CC1 [Compound 248, (R,Z)-1-((2′-chloro-5-methoxy-[1,1′-biphenyl]-2-yl)sulfonyl)-4-fluoro-N-(1-methoxy-4-(methylsulfonyl)but-3-en-2-yl)piperidine-4-carboxamide] | 170 | 557 | 
9 | C[C@H](/C=C/C(=O)N1CC(F)(F)C1)NC(=O)[C@]1(F)CCN(S(=O)(=O)c2ccc(OC(F)F)cc2-c2ccccc2Cl)[C@H](C)C1 [Compound 251, (2R,4S)-1-((2′-chloro-5-(difluoromethoxy)-[1,1′-biphenyl]-2-yl)sulfonyl)-N-((R,E)-5-(3,3-difluoroazetidin-1-yl)-5-oxopent-3-en-2-yl)-4-fluoro-2-methylpiperidine-4-carboxamide] | 260 | 249 | 102
10 | C[C@H](/C=C\S(C)(=O)=O)NC(=O)[C@]1(F)CCN(S(=O)(=O)c2ccc(Br)cc2-c2ccccc2Cl)[C@H](C)C1 [Compound 143, (2R,4S)-1-((5-bromo-2′-chloro-[1,1′-biphenyl]-2-yl)sulfonyl)-4-fluoro-2-methyl-N-((R,Z)-4-(methylsulfonyl)but-3-en-2-yl)piperidine-4-carboxamide] | 66.5 | 117 | 111
11 | C[C@H](/C=C\S(C)(=O)=O)NC(=O)C1(F)CCN(S(=O)(=O)c2ccc(N3CCCC3=O)cc2-c2ccccc2Cl)CC1 [Compound 205, (R,Z)-1-((2′-chloro-5-(2-oxopyrrolidin-1-yl)-[1,1′-biphenyl]-2-yl)sulfonyl)-4-fluoro-N-(4-(methylsulfonyl)but-3-en-2-yl)piperidine-4-carboxamide] | 650 | 1120 | 
12 | C[C@H](/C=C/C(=O)N1CC(F)(F)C1)NC(=O)[C@@]1(F)CCCN(C(=O)c2ccc(C(F)(F)F)cc2-c2c(F)cccc2Cl)CC1 [Compound 245, (4R)-1-(2′-chloro-6′-fluoro-5-(trifluoromethyl)-[1,1′-biphenyl]-2-carbonyl)-N-((R,E)-5-(3,3-difluoroazetidin-1-yl)-5-oxopent-3-en-2-yl)-4-fluoroazepane-4-carboxamide] | 620 | 922 | 86.2
13 | C[C@H](/C=C\S(C)(=O)=O)NC(=O)[C@]1(F)CCN(S(=O)(=O)c2ccc(OC(F)(F)F)cc2-c2ccccc2Cl)[C@H](C)C1 [Compound 250, (2R,4S)-1-((2′-chloro-5-(trifluoromethoxy)-[1,1′-biphenyl]-2-yl)sulfonyl)-4-fluoro-2-methyl-N-((R,Z)-4-(methylsulfonyl)but-3-en-2-yl)piperidine-4-carboxamide] | 350 | 1640 | 96.8
14 | C[C@H]1C[C@](F)(C(=O)N[C@@H]2C=CS(=O)(=O)C2)CCN1C(=O)[C@H]1CN(CC(F)(F)F)C[C@H]1c1ccccc1Cl (single isomer, unassigned) [Compound 174, (2*S,4*S)-1-((3R,4R)-4-(2-chlorophenyl)-1-(2,2,2-trifluoroethyl)pyrrolidine-3-carbonyl)-N-((R)-1,1-dioxido-2,3-dihydrothiophen-3-yl)-4-fluoro-2-methylpiperidine-4-carboxamide] | 276 | 168 | 91.8
15 | C[C@H](/C=C\S(C)(=O)=O)NC(=O)[C@@]1(F)CCCN(C(=O)[C@@]2(C)CN(CC(F)(F)F)C[C@H]2c2ccccc2Cl)CC1 [Compound 254, (R)-1-((3R,4R)-4-(2-chlorophenyl)-3-methyl-1-(2,2,2-trifluoroethyl)pyrrolidine-3-carbonyl)-4-fluoro-N-((R,Z)-4-(methylsulfonyl)but-3-en-2-yl)azepane-4-carboxamide] | 880 | 911 | 92.5

From patent US20250026721A1, “COMPOUNDS AND METHODS FOR MODULATING RAS-PI3K” (Vividion Therapeutics, Inc., priority 2023, published 2025)
